Molecular target: T1, human OX2R (Homo sapiens, UniProt O43614)
T1 sequence (O43614 1-444): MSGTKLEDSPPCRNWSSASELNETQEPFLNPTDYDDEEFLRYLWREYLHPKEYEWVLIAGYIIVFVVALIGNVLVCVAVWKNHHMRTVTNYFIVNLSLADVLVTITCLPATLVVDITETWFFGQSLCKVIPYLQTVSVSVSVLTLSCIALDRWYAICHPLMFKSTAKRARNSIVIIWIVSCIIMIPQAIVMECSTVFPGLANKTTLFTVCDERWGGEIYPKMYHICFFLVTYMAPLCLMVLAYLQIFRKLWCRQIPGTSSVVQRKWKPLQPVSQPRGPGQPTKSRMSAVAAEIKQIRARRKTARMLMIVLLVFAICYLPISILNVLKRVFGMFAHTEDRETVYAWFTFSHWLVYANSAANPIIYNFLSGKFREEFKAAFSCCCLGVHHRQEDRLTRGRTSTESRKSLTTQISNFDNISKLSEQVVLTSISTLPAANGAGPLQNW
Test: IPOne (IP-1) orexin receptor agonist assay in CHO cells expressing human OX2R
Conditions: hOX2R IP-One, percentage of mean max effect of a reference compound at 1 uM with 100% activity
Method: In atypical experiment, the OX1 and OX2 receptor agonist activity is determined in accordance with the following general experimental method. Chinese hamster ovary (CHO) cells expressing human OX1R and/or the human OX2R were grown in Iscove's modified DMEM containing glutaMAX™, 1% G418, 100 U/mL penicillin, 100 μg/mL streptomycin and 10% heat-inactivated qualified fetal bovine serum (FBS). […] During this incubation, IP-one detection reagents were prepared (38:1:1 lysis buffer:D2:AB-cryptate reagents).
For each compound, data were fit to a four parameter logistic fit (ActivityBase software) and the EC50 was reported as the inflection point of the resulting curve.

Compound: COc1cc2nc(c1)C1CCC(CC1)OC[C@H]1[C@@H](NS(C)(=O)=O)C[C@@H](C)N1C(=O)OCCCC2 [Example 111, N-((2^1S,2^4S,5^2R,5^3S,5^5R)-1^4-methoxy-5^5-methyl-6-oxo-3,7-dioxa-1(2,6)-pyridina-5(2,1)-pyrrolidina-2(1,4)-cyclohexanacycloundecaphane-5^3-yl)methanesulfonamide]
- Emax (CHO): 99.6%

Compound: N-((2^1S,2^4S,5^2R,5^3S,5^5R)-1^5- fluoro-1^4-methoxy-5^5-methyl- 6-oxo-3,7,10-trioxa-1(2,6)- pyridina-5(2,1)-pyrrolidina- 2(1,4)-cyclohexanacyclode caphane-5^3-yl)methane sulfonamide [Example 74]
- Emax (%): 110.2%

Compound: N′-((2^1S,2^4S,5^2R,5^3S)-6-oxo-3,7-dioxa-5(2,1)-piperidina-1(1,2)-benzena-2(1,4)-cyclohexanacyclononaphane-5^3-yl)-N,N-dimethyl-sulfamide [Example 37]
- Emax (%): 5.8%

Source: US20240002397A1, “3-AMINO PYRROLIDINE AND PIPERIDINE MACROCYCLIC OREXIN RECEPTOR AGONISTS” (Merck Sharp & Dohme LLC, priority 2020, published 2024)
